In ChEMBL document CHEMBL2390825, “A bioassay-driven discovery of an unexpected selenophene and its cytotoxicity” (Bioorg Med Chem Lett, 2013):
Activity calls are given as the source filed them. The calls are words filed in the database; no cut-off is given here.

Columns and labels:
[1] = tested on: A549; test: Cytotoxicity against human A549 cells after 96 hrs by SRB assay; format: functional, cell-based
[2] = tested on: 518A2; test: Induction of apoptosis in human 518A2 cells assessed as total apoptotic cells at 50 uM after 6 hrs by Annexin V FITC and propidium iodide staining by FACS analysis; format: functional
[3] = Cell cycle arrest in human 518A2 cells assessed as accumulation at S phase at 50 uM after 24 hrs by propidium iodide staining (reference value: 44.643%); format: functional, cell-based
[4] = Cell cycle arrest in human 518A2 cells assessed as accumulation at G2/M phase at 50 uM after 24 hrs by propidium iodide staining (reference value: 8.694%); format: functional, cell-based
[5] = tested on: A2780; test: Cytotoxicity against human A2780 cells after 96 hrs by SRB assay; format: functional, cell-based
[6] = tested on: NIH3T3; test: Cytotoxicity against mouse NIH/3T3 cells after 96 hrs by SRB assay; format: cell-based
[7] = tested on: 8505C; test: Cytotoxicity against human 8505C cells after 96 hrs by SRB assay; format: functional, cell-based
[8] = tested on: MCF7; test: Cytotoxicity against human MCF7 cells after 96 hrs by SRB assay; format: functional, cell-based
[9] = Cytotoxicity against human 518A2 cells after 96 hrs by SRB assay; format: functional, cell-based
[10] = Cell cycle arrest in human 518A2 cells assessed as accumulation at G1/G0 phase at 50 uM after 24 hrs by propidium iodide staining (reference value: 46.662%); format: functional, cell-based
[11] = tested on: 518A2; test: Induction of apoptosis in human 518A2 cells assessed as necrotic cells at 50 uM after 6 hrs by Annexin V FITC and propidium iodide staining by FACS analysis; format: functional
[12] = tested on: 518A2; test: Induction of apoptosis in human 518A2 cells assessed as viable cells at 50 uM after 6 hrs by Annexin V FITC and propidium iodide staining by FACS analysis; format: functional; conditions: 518A2, 6 h, read-out: Activity
[13] = tested on: HT-29; test: Cytotoxicity against human HT-29 cells after 96 hrs by SRB assay; format: functional, cell-based
[14] = tested on: 518A2; test: Induction of apoptosis in human 518A2 cells assessed as formation of DNA ladder at 50 uM after 24 hrs using AO/PI dye by fluorescence microscopic analysis; format: functional, cell-based
[15] = tested on: 518A2; test: Induction of apoptosis in human 518A2 cells assessed as total apoptotic cells at 30 uM after 6 hrs by Annexin V FITC and propidium iodide staining by FACS analysis; format: functional
[16] = Cell cycle arrest in human 518A2 cells assessed as accumulation at G1/G0 phase at 30 uM after 24 hrs by propidium iodide staining (reference value: 46.662%); format: functional, cell-based
[17] = tested on: 518A2; test: Induction of apoptosis in human 518A2 cells assessed as necrotic cells at 30 uM after 6 hrs by Annexin V FITC and propidium iodide staining by FACS analysis; format: functional
[18] = Cell cycle arrest in human 518A2 cells assessed as accumulation at G2/M phase at 30 uM after 24 hrs by propidium iodide staining (reference value: 8.694%); format: functional, cell-based
[19] = Cell cycle arrest in human 518A2 cells assessed as accumulation at S phase at 30 uM after 24 hrs by propidium iodide staining (reference value: 44.643%); format: functional, cell-based
[20] = tested on: 518A2; test: Induction of apoptosis in human 518A2 cells assessed as viable cells at 30 uM after 6 hrs by Annexin V FITC and propidium iodide staining by FACS analysis; format: functional; conditions: 518A2, 6 h, read-out: Activity

| SMILES | IC50 [1] [µmol] | Activity [2] [%] | Activity [3] [%] | Activity [4] [%] | IC50 [5] [µmol] | IC50 [6] [µmol] | IC50 [7] [µmol] | IC50 [8] [µmol] | IC50 [9] [µmol] | Activity [10] [%] | Activity [11] [%] | viability at 50 µM [12] [%] | IC50 [13] [µmol] | Activity [14] | Activity [15] [%] | Activity [16] [%] | Activity [17] [%] | Activity [18] [%] | Activity [19] [%] | viability at 30 µM [20] [%] |
| --- | --- | --- | --- | --- | --- | --- | --- | --- | --- | --- | --- | --- | --- | --- | --- | --- | --- | --- | --- | --- |
| COC(=O)[C@@]1(C)CC[C@]2(C)CC[C@]3(C)C(=CC(=O)[C@@H]4[C@@]5(C)CC[C@H](OC(C)=O)C(C)(C)[C@@H]5CC[C@]43C)[C@@H]2C1 | 42.6 | 16.8 | 4 | -7 | 40.5 | 101.4 | 116.4 | 51.6 | 26.1 | -2 | 2.5 | -19.3 | 77.4 | – | – | – | – | – | – | – |
| COC(=O)[C@@]1(C)CC[C@]2(C)CC[C@]3(C)c4c([se]c1c42)C(=O)[C@@H]1[C@@]2(C)CC[C@H](OC(C)=O)C(C)(C)[C@@H]2CC[C@]13C | 46.9 | 13.2 | 8 | -86 | 33.7 | 46.1 | 42.2 | 45.6 | 36.7 | 9 | 1.8 | -15 | 67.2 | Active | – | – | – | – | – | – |
| COC(=O)[C@@]1(C)CC[C@]2(C)CC[C@]3(C)[C@@]4(C(=O)OC1=C24)C(=O)[C@@H]1[C@@]2(C)CC[C@H](OC(C)=O)C(C)(C)[C@@H]2CC[C@]13C | 15 | – | – | – | 19.7 | 38.1 | 73.2 | 33.5 | 14.7 | – | – | – | 58.7 | – | 3.9 | 11 | 0.5 | -15 | -8 | -4.3 |
